The results in this text go back to ChEMBL document CHEMBL2069259, “Preclinical strategy to reduce clinical hepatotoxicity using in vitro bioactivation data for >200 compounds” (Chem Res Toxicol, 2012).

This series concerns Liver microsomes. In words: Metabolic stability in human liver microsomes assessed as GSH adduct formation at 100 uM after 90 mins by HPLC-MS analysis. Conditions: 1.5 h. (Microsomes from liver hold many membrane-bound enzymes, among them those of drug oxidation.)
For the compound `CCN1CCC[C@H]1CNC(=O)c1c(OC)ccc(Br)c1OC` [REMOXIPRIDE], the Stability entry was “Stable”.

Consider `CN1CC[C@]23c4c5ccc(O)c4O[C@H]2C(=O)CC[C@@]3(O)[C@H]1C5` [OXYMORPHONE], for which the Stability result was “Stable”.

Consider `C[C@](N)(Cc1ccc(O)cc1)C(=O)O` [METYROSINE], for which the Stability entry is “Stable”.

On to `CN[C@@H](C)Cc1ccccc1` [METHAMPHETAMINE], for which the Stability result is listed as “Stable”.

As for `CC(=O)[C@H]1CC[C@H]2[C@@H]3CCC4=CC(=O)CC[C@]4(C)[C@H]3CC[C@]12C` [PROGESTERONE], the Stability result is given as “Stable”. Under `CC[C@H]1OC(=O)[C@H](C)[C@@H](O[C@H]2C[C@@](C)(OC)[C@@H](O)[C@H](C)O2)[C@H](C)[C@@H](O[C@@H]2O[C@H](C)C[C@H](N(C)C)[C@H]2O)[C@](C)(O)C[C@@H](C)CN(C)[C@H](C)[C@@H](O)[C@]1(C)O` [AZITHROMYCIN] stands “Stable”; under `O=c1[nH]cnc2c1ncn2[C@H]1CC[C@@H](CO)O1` [DIDANOSINE], “Stable”. Turning to `COc1ccc([C@@H]2Sc3ccccc3N(CCN(C)C)C(=O)[C@@H]2OC(C)=O)cc1` [DILTIAZEM], the Stability entry is given as “Stable”.

As for `CCN1CCCC1CNC(=O)c1cc(S(N)(=O)=O)ccc1OC` (stereo not given) [SULPIRIDE], the Stability entry is listed as “Stable”.

Consider `Oc1ncnc2[nH]ncc12` [ALLOPURINOL], for which the Stability entry was “Stable”. Regarding `CN(C)C(=O)Oc1cccc([N+](C)(C)C)c1.[Br-]` [NEOSTIGMINE BROMIDE], the Stability entry is given as “Stable”. Take `CC(C)(O/N=C(\C(=O)N[C@@H]1C(=O)N2C(C(=O)[O-])=C(C[n+]3ccccc3)CS[C@H]12)c1csc(N)n1)C(=O)O` [CEFTAZIDIME]: the Stability entry is given as “Stable”. Turning to `C[C@H](N)[C@H](O)c1cccc(O)c1` [METARAMINOL], the Stability result is listed as “Stable”. For `Cc1cn([C@H]2C[C@H](N=[N+]=[N-])[C@@H](CO)O2)c(=O)[nH]c1=O` [ZIDOVUDINE], the Stability entry is “Stable”. Under `NC(=O)OCC(COC(N)=O)c1ccccc1` [FELBAMATE] stands “Stable”; under `CCN(CC)CCCC(C)Nc1ccnc2cc(Cl)ccc12` (stereo not given) [CHLOROQUINE], “Stable”. Under `CC(O)(P(=O)(O)O)P(=O)(O)O` [ETIDRONIC ACID] stands “Stable”; under `CC1(C)NC(=O)N(c2ccc([N+](=O)[O-])c(C(F)(F)F)c2)C1=O` [NILUTAMIDE], “Stable”. Consider `O=C1CN(/N=C/c2ccc(-c3ccc([N+](=O)[O-])cc3)o2)C(O)=N1` [DANTROLENE], for which the Stability result is on record as “Stable”. Regarding `CC(CCc1ccccc1)NCC(O)c1ccc(O)c(C(N)=O)c1` (stereo not given) [LABETALOL], the Stability result is listed as “Stable”. Consider `CCC1(c2ccccc2)C(=O)NC(=O)NC1=O` [PHENOBARBITAL], for which the Stability entry is given as “Stable”. Regarding `CCCNC(=O)NS(=O)(=O)c1ccc(Cl)cc1` [CHLORPROPAMIDE], the Stability result was “Stable”. As for `COc1ccc2c3c1O[C@H]1C(=O)CC[C@H]4[C@@H](C2)N(C)CC[C@]314` [HYDROCODONE], the Stability entry is “Stable”. Consider `Nc1nnc(-c2cccc(Cl)c2Cl)c(N)n1` [LAMOTRIGINE], for which the Stability entry is “Stable”.

On to `CC[C@H]1OC(=O)[C@H](C)[C@@H](O[C@H]2C[C@@](C)(OC)[C@@H](O)[C@H](C)O2)[C@H](C)[C@@H](O[C@@H]2O[C@H](C)C[C@H](N(C)C)[C@H]2O)[C@](C)(O)C[C@@H](C)C(=O)[C@H](C)[C@@H](O)[C@]1(C)O` [ERYTHROMYCIN], for which the Stability entry is listed as “Stable”. Under `NC(=O)C[S+]([O-])C(c1ccccc1)c1ccccc1` (stereo not given) [MODAFINIL] stands “Stable”.

For `Cc1ccccc1C(OCCN(C)C)c1ccccc1` (stereo not given) [ORPHENADRINE], the Stability entry was “Stable”.

With `CCCC1O[C@@H]2C[C@H]3[C@@H]4CCC5=CC(=O)C=C[C@]5(C)[C@H]4[C@@H](O)C[C@]3(C)[C@]2(C(=O)CO)O1` (stereo not given in full) [BUDESONIDE], the Stability entry is given as “Stable”. On to `CCN1CCN(C(=O)N[C@@H](C(=O)N[C@@H]2C(=O)N3C(C(=O)O)=C(CSc4nnnn4C)CS[C@H]23)c2ccc(O)cc2)C(=O)C1=O` [CEFOPERAZONE], for which the Stability result was “Stable”.

On to `C[C@H]1O[C@@H](O[C@H]2[C@@H](O)C[C@H](O[C@H]3[C@@H](O)C[C@H](O[C@H]4CC[C@@]5(C)[C@H](CC[C@@H]6[C@@H]5C[C@@H](O)[C@]5(C)[C@@H](C7=CC(=O)OC7)CC[C@]65O)C4)O[C@@H]3C)O[C@@H]2C)C[C@H](O)[C@@H]1O` [DIGOXIN], for which the Stability entry is “Stable”.

As to `Nc1cc(N2CCCCC2)nc(N)[n+]1[O-]` [MINOXIDIL], the Stability entry is “Unstable”. Turning to `OC(Cn1cncn1)(Cn1cncn1)c1ccc(F)cc1F` [FLUCONAZOLE], the Stability result is given as “Stable”.

On to `Cc1cc2c(s1)Nc1ccccc1N=C2N1CCN(C)CC1` [OLANZAPINE], for which the Stability result is listed as “Stable”.

Take GENTAMICIN: the Stability entry was “Stable”. With `C[C@]12CC[C@H]3[C@@H](CCC4=CC(=O)CC[C@@]43C)[C@@H]1CC[C@@H]2O` [TESTOSTERONE] the entry was “Stable”; with `CC1COc2c(N3CCN(C)CC3)c(F)cc3c(=O)c(C(=O)O)cn1c23` (stereo not given) [OFLOXACIN], “Stable”. Under `CCCCC[C@H](O)/C=C/[C@H]1[C@H](O)CC(=O)[C@@H]1CCCCCCC(=O)O` [ALPROSTADIL] stands “Stable”. As to `C[C@@H]1C[C@H]2[C@@H]3CCC4=CC(=O)C=C[C@]4(C)[C@@]3(F)[C@@H](O)C[C@]2(C)[C@@]1(O)C(=O)CO` [DEXAMETHASONE], the Stability result was “Stable”.

Regarding `NCCC(O)(P(=O)(O)O)P(=O)(O)O` [PAMIDRONIC ACID], the Stability entry is listed as “Stable”. Take `O=P(O)(O)C(O)(Cc1cccnc1)P(=O)(O)O` [RISEDRONIC ACID]: the Stability result was “Stable”.

As to `CN(C)CCCN1c2ccccc2Sc2ccc(Cl)cc21` [CHLORPROMAZINE], the Stability entry is reported as “Stable”.

As for `O=c1[nH]c(=O)n([C@H]2C[C@H](O)[C@@H](CO)O2)cc1F` [FLOXURIDINE], the Stability entry is given as “Stable”. For the compound `C[C@]12C=CC(=O)C=C1CC[C@H]1[C@@H]3C[C@@H](O)[C@](O)(C(=O)CO)[C@@]3(C)C[C@H](O)[C@@]12F` [TRIAMCINOLONE], the Stability entry is “Stable”. With `CN1CC[C@]23c4c5ccc(O)c4O[C@H]2C(=O)CC[C@H]3[C@H]1C5` [HYDROMORPHONE] the entry was “Stable”; with `Cn1c(=O)c2c(ncn2C)n(C)c1=O` [CAFFEINE], “Stable”. For the compound `NC(=O)c1cnccn1` [PYRAZINAMIDE], the Stability entry is given as “Stable”. On to `CCc1nn(CCCN2CCN(c3cccc(Cl)c3)CC2)c(=O)n1CCOc1ccccc1` [NEFAZODONE], for which the Stability entry is “Stable”.

`Cc1cccc(Nc2ccncc2S(=O)(=O)NC(=O)NC(C)C)c1` [TORSEMIDE]: the Stability entry is on record as “Stable”. Consider `CCOC(=O)C(C)(C)Oc1ccc(Cl)cc1` [CLOFIBRATE], for which the Stability result is recorded as “Stable”. For the compound `COc1cc(N)c(Cl)cc1C(=O)NC1CCN(CCCOc2ccc(F)cc2)CC1OC` (stereo not given) [CISAPRIDE], the Stability result was “Stable”.

On to `O=C1NC(=O)C(c2ccccc2)(c2ccccc2)N1` [PHENYTOIN], for which the Stability entry is “Stable”. In the case of `CC(C)(C)NC(=O)[C@H]1CC[C@H]2[C@@H]3CC[C@H]4NC(=O)C=C[C@]4(C)[C@H]3CC[C@]12C` [FINASTERIDE], the Stability entry was “Stable”. Under `CNCCCC12CCC(c3ccccc31)c1ccccc12` [MAPROTILINE] stands “Stable”; under `OCCOCCN1CCN(C(c2ccccc2)c2ccc(Cl)cc2)CC1` (stereo not given) [HYDROXYZINE], “Stable”; under `O=C(O)c1cc(=O)c2c(OCC(O)COc3cccc4oc(C(=O)O)cc(=O)c34)cccc2o1` [CROMOLYN], “Stable”. As for `CN(Cc1cnc2nc(N)nc(N)c2n1)c1ccc(C(=O)N[C@@H](CCC(=O)O)C(=O)O)cc1` [METHOTREXATE], the Stability result is given as “Stable”.

In the case of `COc1ccccc1OCC(O)CO` (stereo not given) [GUAIFENESIN], the Stability entry was “Stable”. On to `CCNC(=O)[C@@H]1CCCN1C(=O)[C@H](CCCNC(=N)N)NC(=O)[C@H](CC(C)C)NC(=O)[C@@H](CC(C)C)NC(=O)[C@H](Cc1ccc(O)cc1)NC(=O)[C@H](CO)NC(=O)[C@H](Cc1c[nH]c2ccccc12)NC(=O)[C@H](Cc1c[nH]cn1)NC(=O)[C@@H]1CCC(=O)N1` [LEUPROLIDE], for which the Stability entry is “Stable”. On to `COc1cc2nc(N3CCN(C(=O)C4CCCO4)CC3)nc(N)c2cc1OC` (stereo not given) [TERAZOSIN], for which the Stability entry is reported as “Stable”. In the case of `CC(C)C[C@H](N)C(=O)O` [LEUCINE], the Stability entry is recorded as “Stable”. Take `CCN(CC)Cc1cc(Nc2ccnc3cc(Cl)ccc23)ccc1O.Cl`: the Stability entry is “Unstable”.

For the compound `CC(C)Cc1ccc(C(C)C(=O)O)cc1` (stereo not given) [IBUPROFEN], the Stability entry is given as “Stable”. For the compound `CC(C)(N)Cc1ccccc1` [PHENTERMINE], the Stability entry is listed as “Stable”. Regarding `CC(C)NCC(O)c1ccc(NS(C)(=O)=O)cc1` (stereo not given) [SOTALOL], the Stability entry is “Stable”. Turning to `C[C@H]1C[C@H]2[C@@H]3CCC4=CC(=O)C=C[C@]4(C)[C@@]3(Cl)[C@@H](O)C[C@]2(C)[C@@]1(O)C(=O)CO` [BECLOMETHASONE], the Stability entry is given as “Stable”. For `COc1ccc2c(c1)c(CC(=O)O)c(C)n2C(=O)c1ccc(Cl)cc1` [INDOMETHACIN], the Stability entry is listed as “Stable”. Turning to `Nc1ccn([C@@H]2O[C@H](CO)[C@@H](O)[C@@H]2O)c(=O)n1` [CYTARABINE], the Stability entry is on record as “Stable”. With `CC/C(=C(\c1ccccc1)c1ccc(OCCN(C)C)cc1)c1ccccc1` [TAMOXIFEN] the entry was “Stable”; with `CCOC(=O)C1(c2ccccc2)CCN(C)CC1` [MEPERIDINE], “Stable”; with `CO[C@H](C(=O)[C@@H](O)[C@@H](C)O)[C@@H]1Cc2cc3cc(O[C@H]4C[C@@H](O[C@H]5C[C@@H](O)[C@H](O)[C@@H](C)O5)[C@H](O)[C@@H](C)O4)c(C)c(O)c3c(O)c2C(=O)[C@H]1O[C@H]1C[C@@H](O[C@H]2C[C@@H](O[C@H]3C[C@](C)(O)[C@H](O)[C@@H](C)O3)[C@@H](O)[C@@H](C)O2)[C@H](O)[C@@H](C)O1` [PLICAMYCIN], “Stable”.
